Results on 15 compounds are retold here after patent US12054494B2, “Compound with anticancer activity” (KYOWA KIRIN CO., LTD., priority 2018, dated 2024).

The test system of the experiment is SU-DHL-4 cells. The experiment in a line: Inhibitory effect on cell viability (Cell Counting Kit-8). The class given is cell-based. Conditions: Homo sapiens, 72 hours culture with test compound, concentration showing 90% inhibition rate of cell viability. In short, it runs like this:
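SU-DHL-4 cells (2000/well, RPMI1640 with 10% FBS) precultured 18-25 h, then exposed to a 9-step compound dilution series (0.1% DMSO final) for 72 h at 37° C. Viability by CCK-8 absorbance at 450 nm after 2-3 h; IC90 computed from inhibition rate relative to untreated and cell-free wells.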
What is called IC90 is the point of the concentration-response curve where the effect stands at 90%. For `CCC(=O)N1c2ccccc2[C@H](Nc2ccc(NC(=O)CCS(=O)(=O)c3ccc(N[C@@H]4C[C@H](C)N(C(=O)CC)c5ccccc54)cc3)cc2)C[C@@H]1C` [Compound 5l, N-(4-(((2S,4R)-2-Methyl-1-propionyl-1,2,3,4-tetrahydroquinolin-4-yl)amino)phenyl)-3-((4-(((2S,4R)-2-methyl-1-propionyl-1,2,3,4-tetrahydroquinolin-4-yl)amino)phenyl)sulfonyl)propanamide], the IC90 worked out at 37 nM.
`CCC(=O)N1c2ccccc2[C@H](Nc2ccc(NC(=O)CC[S+]([O-])c3ccc(N[C@@H]4C[C@H](C)N(C(=O)CC)c5ccccc54)cc3)cc2)C[C@@H]1C` (stereo partly drawn) [Compound 5m, N-(4-(((2S,4R)-2-Methyl-1-propionyl-1,2,3,4-tetrahydroquinolin-4-yl)amino)phenyl)-3-((4-(((2S,4R)-2-methyl-1-propionyl-1,2,3,4-tetrahydroquinolin-4-yl)amino)phenyl)sulfinyl)propanamide] came in with an IC90 of 0.59 nM. Against the preceding compound, the IC90 is about 63-fold lower.
`CCC(=O)N1c2ccccc2[C@H](Nc2ccc(OCCNC(=O)c3ccc(N[C@@H]4C[C@H](C)N(C(=O)CC)c5ccccc54)cc3)cc2)C[C@@H]1C` [Compound 5n, 4-(((2S,4R)-2-Methyl-1-propionyl-1,2,3,4-tetrahydroquinolin-4-yl)amino)-N-(2-(4-(((2S,4R)-2-methyl-1-propionyl-1,2,3,4-tetrahydroquinolin-4-yl)amino)phenoxy)ethyl)benzamide] had an IC90 of 8.83 nM.
The value for `CCC(=O)N1c2ccccc2[C@H](Nc2ccc(NC(=O)COCC(=O)Nc3ccc(N[C@@H]4C[C@H](C)N(C(=O)CC)c5ccccc54)cc3)cc2)C[C@@H]1C` [Compound 5o, 2,2′-Oxybis(N-(4-(((2S,4R)-2-methyl-1-propionyl-1,2,3,4-tetrahydroquinolin-4-yl)amino)phenyl)acetamide)] was 0.14 nM; that for `CCC(=O)N1c2ccccc2[C@H](Nc2ccc(OCCCNC(=O)c3ccc(N[C@@H]4C[C@H](C)N(C(=O)CC)c5ccccc54)cc3)cc2)C[C@@H]1C` [Compound 5p, 4-(((2S,4R)-2-Methyl-1-propionyl-1,2,3,4-tetrahydroquinolin-4-yl)amino)-N-(3-(4-(((2S,4R)-2-methyl-1-propionyl-1,2,3,4-tetrahydroquinolin-4-yl)amino)phenoxy)propyl)benzamide] was 2.68 nM.
Consider `CCC(=O)N1c2ccccc2[C@H](Nc2ccc(Cc3cnc4n3CCN(C(=O)c3ccc(N[C@@H]5C[C@H](C)N(C(=O)CC)c6ccccc65)cc3)C4)cc2)C[C@@H]1C` [Compound 5q, 1-((2S,4R)-2-Methyl-4-((4-((7-(4-(((2S,4R)-2-methyl-1-propionyl-1,2,3,4-tetrahydroquinolin-4-yl)amino)benzoyl)-5,6,7,8-tetrahydroimidazo[1,2-a]pyrazin-3-yl)methyl)phenyl)amino)-3,4-dihydroquinolin-1(2H)-yl)propan-1-one], for which it took 0.11 nM to reach the 90% level (IC90). Against the preceding compound, the IC90 is about 24-fold lower.
`CCC(=O)N1c2ccccc2[C@H](Nc2ccc(CCCC(=O)Nc3ccc(N[C@@H]4C[C@H](C)N(C(=O)CC)c5ccccc54)cc3)cc2)C[C@@H]1C` [Compound 5r, N,4-Bis(4-(((2S,4R)-2-methyl-1-propionyl-1,2,3,4-tetrahydroquinolin-4-yl)amino)phenyl)butanamide] had an IC90 of 1.78 nM. Against the preceding compound, the IC90 is about 16-fold higher.
The compound `CCC(=O)N1c2ccccc2[C@H](Nc2ccc(C(=O)N3CCn4c(C(O)c5ccc(N[C@@H]6C[C@H](C)N(C(=O)CC)c7ccccc76)cc5)cnc4C3)cc2)C[C@@H]1C` (stereo partly drawn) [Compound 6a, 1-((2S,4R)-4-((4-(3-(Hydroxy(4-(((2S,4R)-2-methyl-1-propionyl-1,2,3,4-tetrahydroquinolin-4-yl)amino)phenyl)methyl)-5,6,7,8-tetrahydroimidazo[1,2-a]pyrazine-7-carbonyl)phenyl)amino)-2-methyl-3,4-dihydroquinolin-1(2H)-yl)propan-1-one] returned an IC90 of 0.89 nM.
For the compound `CCC(=O)N1c2ccccc2[C@H](Nc2ccc(NC(=O)CCS(=O)(=O)Nc3ccc(N[C@@H]4C[C@H](C)N(C(=O)CC)c5ccccc54)cc3)cc2)C[C@@H]1C` [Compound 6b, N-(4-(((2S,4R)-2-Methyl-1-propionyl-1,2,3,4-tetrahydroquinolin-4-yl)amino)phenyl)-3-(N-(4-(((2S,4R)-2-methyl-1-propionyl-1,2,3,4-tetrahydroquinolin-4-yl)amino)phenyl)sulfamoyl)propanamide], the IC90 is 0.1 nM. This IC90 lies about 8.9-fold lower than the previous one.
Take `CCC(=O)N1c2ccccc2[C@H](Nc2ccc(C(=O)NCCc3cn(-c4ccc(N[C@@H]5C[C@H](C)N(C(=O)CC)c6ccccc65)cc4)nn3)cc2)C[C@@H]1C` [Compound 6c, 4-(((2S,4R)-2-Methyl-1-propionyl-1,2,3,4-tetrahydroquinolin-4-yl)amino)-N-(2-(1-(4-(((2S,4R)-2-methyl-1-propionyl-1,2,3,4-tetrahydroquinolin-4-yl)amino)phenyl)-1H-1,2,3-triazol-4-yl)ethyl)benzamide]: the 90% effect level (IC90) was put at 0.83 nM. This IC90 is about 8.3-fold higher than that of the compound before.
For `CCC(=O)N1c2ccccc2[C@H](Nc2ccc(CN3CC(C(=O)Nc4ccc(N[C@@H]5C[C@H](C)N(C(=O)CC)c6ccccc65)cc4)C3)cc2)C[C@@H]1C` [Compound 6d, 1-(4-(((2S,4R)-2-Methyl-1-propionyl-1,2,3,4-tetrahydroquinolin-4-yl)amino)benzyl)-N-(4-(((2S,4R)-2-methyl-1-propionyl-1,2,3,4-tetrahydroquinolin-4-yl)amino)phenyl)azetidine-3-carboxamide] the value was 5.08 nM; for `CCC(=O)N1c2ccccc2[C@H](Nc2ccc(NS(=O)(=O)CCNC(=O)c3ccc(N[C@@H]4C[C@H](C)N(C(=O)CC)c5ccccc54)cc3)cc2)C[C@@H]1C` [Compound 6g, 4-(((2S,4R)-2-Methyl-1-propionyl-1,2,3,4-tetrahydroquinolin-4-yl)amino)-N-(2-(N-(4-(((2S,4R)-2-methyl-1-propionyl-1,2,3,4-tetrahydroquinolin-4-yl)amino)phenyl)sulfamoyl)ethyl)benzamide], 0.31 nM.
For the compound `CCC(=O)N1c2ccccc2C(Nc2ccc(NC(=O)C#CCNC(=O)c3ccc(N[C@@H]4C[C@H](C)N(C(=O)CC)c5ccccc54)cc3)cc2)CC1C` (stereo partly drawn) [Compound 6h, 4-(((2S,4R)-2-Methyl-1-propionyl-1,2,3,4-tetrahydroquinolin-4-yl)amino)-N-(4-((4-((2-methyl-1-propionyl-1,2,3,4-tetrahydroquinolin-4-yl)amino)phenyl)amino)-4-oxobut-2-yn-1-yl)benzamide], the IC90 came to 0.003 nM.
`CCC(=O)N1c2ccccc2[C@H](Nc2ccc(C(=O)N3CCC(n4cc(-c5ccc(N[C@@H]6C[C@H](C)N(C(=O)CC)c7ccccc76)cc5)cn4)CC3)cc2)C[C@@H]1C` [Compound 6o, 1-((2S,4R)-2-Methyl-4-((4-(1-(1-(4-(((2S,4R)-2-methyl-1-propionyl-1,2,3,4-tetrahydroquinolin-4-yl)amino)benzoyl)piperidin-4-yl)-1H-pyrazol-4-yl)phenyl)amino)-3,4-dihydroquinolin-1(2H)-yl)propan-1-one] had an IC90 of 0.14 nM. This IC90 lies about 47-fold higher than the previous one.
For `CCC(=O)N1c2ccccc2[C@H](Nc2ccc(C(=O)N3CCCN(C(=O)c4ccc(N[C@@H]5C[C@H](C)N(C(=O)CC)c6ccccc65)cc4)CC3)cc2)C[C@@H]1C` [Compound 6p, 1,1′-((2S,2′S,4R,4′R)-(((1,4-Diazepane-1,4-dicarbonyl)bis(4,1-phenylene))bis(azanediyl))bis(2-methyl-3,4-dihydroquinoline-4,1(2H)-diyl))bis(propan-1-one)], it took 41.5 nM to reach the 90% level (IC90).
